This note sets out measurements from patent US20230084927A1, “GLUCOSE UPTAKE INHIBITORS AND USES THEREOF” (METABOMED LTD., priority 2019, published 2023).

Assay [1] deals with SDH-KO-HRAS cells (SDHB-deficient). Nature of the assay: Cellular / differential toxicity assay (CellTiter-Glo, 3 days). The assay is classed as cell-based, murine. Particulars: for EC50: toxicity, SDH-KO cells, 3 days, CellTiter-Glo, read-out: EC50 (uM) SDH-KO-HTAS-C17. The method in brief: (§1)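 Isogenic SDHB-deficient (HRAS-transformed SDH-KO) and SDH-WT cells grown in DMEM-F12 with 1 mM glutamine and 3% FBS, plated with compound (10-point dilution from 10 uM to 0.0065 uM or lower) for 3 days at 37 °C, 5% CO2. Viability by CellTiter-Glo luminescence; EC50 calculated.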
A general note: In ATP-based viability assays light output follows the ATP content of the culture.

The next assay relates to SDH-WT cells. The description is as above. It is filed as cell-based, murine. Particulars: toxicity, SDH-WT cells, 3 days, CellTiter-Glo, read-out: EC50 (uM) SDH-WT. In a few lines: as §1

Like-named read-outs stand apart in the source and are kept apart here.

By EC50 is commonly meant the concentration at which the effect is half-maximal. For `Cc1nc(NCCc2ccccc2)c2sc3nc4c(cc3c2n1)COC(C)(C)C4` [Compound 240], the concentration for a half-maximal effect (EC50) is 3 to 10 µM in assay [1] (Mus musculus, 72 h) and above 10 µM with SDH-WT cells (Mus musculus, 72 h).
Regarding `C=CCNc1ncnc2c1sc1nc3c(cc12)COC(C)(C)C3` [Compound 296], the EC50 in assay [1] is 3 to 10 µM; with SDH-WT cells it was above 10 µM.
Take `Cc1nc(NCc2ccc(OC(C)C)cc2)c2sc3nc4c(cc3c2n1)COC(C)(C)C4` [Compound 235]: the EC50 was above 10 µM in assay [1] (Mus musculus, 72 h) and above 10 µM in the assay on SDH-WT cells (Mus musculus, 72 h).
In the case of `CC1(C)Cc2nc3sc4c(NCCc5ccc6ocnc6c5)ncnc4c3cc2CO1` [Compound 175], the EC50 in assay [1] (Mus musculus, 72 h) fell in the range of 1 to 3 µM; in the assay on SDH-WT cells (Mus musculus, 72 h), 3 to 10 µM.
As for `CC1(C)Cc2nc3sc4c(N5CCN(C(c6ccccc6)c6ccccc6)CC5)ncnc4c3cc2CO1` [Compound 286], the EC50 in assay [1] (Mus musculus, 72 h) was above 10 µM; in the assay with SDH-WT cells (Mus musculus, 72 h) it was above 10 µM.
Turning to `COc1ccc(CCNc2ncnc3c2sc2nc4c(cc23)CCCC4)cc1F` [Compound 109, N-(3-Fluoro-4-methoxyphenethyl)-7,8,9,10-tetrahydropyrimido[4′,5′:4,5]-thieno[2,3-b]quinolin-4-amine], the EC50 in assay [1] (Mus musculus, 72 h) was above 10 µM; in the assay on SDH-WT cells (Mus musculus, 72 h), above 10 µM.
As for `CC1(C)Cc2nc3oc4c(NCCc5ccc6[nH]cnc6c5)ncnc4c3cc2CO1` [Compound 329], the EC50 is below 1 µM in assay [1] (Mus musculus, 72 h) and below 1 µM in the assay with SDH-WT cells (Mus musculus, 72 h).
Turning to `CC(=O)OCC(=O)Cc1ccc(CCNc2ncnc3c2sc2nc4c(cc23)COC(C)(C)C4)cc1[N+](=O)[O-]` [Compound 184], the EC50 in assay [1] (Mus musculus, 72 h) lay in the range of 3 to 10 µM; in the assay with SDH-WT cells (Mus musculus, 72 h) it was 3 to 10 µM.
On to `CC1(C)Cc2nc3sc4c(NCCc5ccc(N)c(F)c5)ncnc4c3cc2CO1` [Compound 203], for which the EC50 in assay [1] (Mus musculus, 72 h) is below 1 µM; in the assay on SDH-WT cells (Mus musculus, 72 h), above 10 µM.
In the same order, the values of `COc1nc2cc(CCNc3ncnc4c3sc3nc5c(cc34)COC(C)(C)C5)ccc2[nH]1` [Compound 195] are below 1 µM and below 1 µM.
In the same order, the values of `CC1(C)Cc2nc3sc4c(NCCc5ccc(C(=O)O)cc5)ncnc4c3cc2CO1` [Compound 159] are above 10 µM and above 10 µM.
In the same order, the values of `CC(C)(C)Nc1ncnc2c1sc1nc3c(cc12)COC(C)(C)C3` [Compound 259] are above 10 µM and above 10 µM.
`CC1(C)Cc2nc3sc4c(N(CCO)CCO)ncnc4c3cc2CO1` [Compound 275]: the EC50 is above 10 µM in assay [1] (Mus musculus, 72 h) and above 10 µM in the assay with SDH-WT cells (Mus musculus, 72 h).
With `CC(=O)N(C)c1ccc(CCNc2ncnc3c2sc2nc4c(cc23)COC(C)(C)C4)cc1` [Compound 158], the EC50 is below 1 µM in assay [1] (Mus musculus, 72 h) and above 10 µM with SDH-WT cells (Mus musculus, 72 h).
In the same order, the values of `CC(=O)OC(C)C(=O)Nc1ccc(CCNc2ncnc3c2sc2nc4c(cc23)COC(C)(C)C4)cc1[N+](=O)[O-]` (stereo not shown) [Compound 187] are 3 to 10 µM and 1 to 3 µM.
In the same order, the values of `CCN1CCN(c2ncnc3c2sc2nc4c(cc23)COC(C)(C)C4)CC1` [Compound 280] are above 10 µM and above 10 µM.
In the same order, the values of `COc1ccc(CCNc2ncnc3c2sc2nc4c(cc23)COCC4)cc1F` [Compound 303] are below 1 µM and above 10 µM.
As for `CN1CCC(OCc2c3c(nc4sc5c(NCCc6ccc7[nH]cnc7c6)ncnc5c24)CC(C)(C)OC3)CC1` [Compound 328, N-(2-(1H-Benzo[d]imidazol-5-yl)ethyl)-8,8-dimethyl-11-(((1-methylpiperidin-4-yl)oxy)methyl)-7,10-dihydro-8H-pyrano[3″,4″:5′,6′]pyrido[3′,2′:4,5]thieno[3,2-d]pyrimidin-4-amine], the EC50 was 3 to 10 µM in assay [1] (Mus musculus, 72 h) and 3 to 10 µM in the assay on SDH-WT cells (Mus musculus, 72 h).
Turning to `CCCCN(CCCC)c1ncnc2c1sc1nc3c(cc12)COC(C)(C)C3` [Compound 258], the EC50 is above 10 µM in assay [1] (Mus musculus, 72 h) and above 10 µM in the assay with SDH-WT cells (Mus musculus, 72 h).
Consider `CC1(C)Cc2nc3sc4c(NCCc5ccc(OS(C)(=O)=O)cc5)ncnc4c3cc2CO1` [Compound 157], for which the EC50 in assay [1] (Mus musculus, 72 h) is above 10 µM; with SDH-WT cells (Mus musculus, 72 h), above 10 µM.
Take `CN(c1ccc(CCNc2ncnc3c2sc2nc4c(cc23)COC(C)(C)C4)cc1)S(C)(=O)=O` [Compound 146]: the EC50 was 3 to 10 µM in assay [1] (Mus musculus, 72 h) and above 10 µM in the assay on SDH-WT cells (Mus musculus, 72 h).
In the same order, the values of `CC1(C)Cc2nc3sc4c(NCCc5ccc(-c6ncco6)cc5)ncnc4c3cc2CO1` [Compound 147] are below 1 µM and 3 to 10 µM.
For the compound `CSCc1c2c(nc3sc4c(NCCc5ccc6[nH]cnc6c5)ncnc4c13)CC(C)(C)OC2` [Compound 319, N-(2-(1H-Benzo[d]imidazol-5-yl)ethyl)-8,8-dimethyl-11-((methylthio)methyl)-7,10-dihydro-8H-pyrano[3″,4″:5′,6′]pyrido[3′,2′:4,5]thieno[3,2-d]pyrimidin-4-amine], the EC50 in assay [1] (Mus musculus, 72 h) was below 1 µM; in the assay with SDH-WT cells (Mus musculus, 72 h), 1 to 3 µM.
In the same order, the values of `COc1ccc(CCNc2ncnc3c2sc2nc4c(cc23)COC(C)(C)C4)cc1F` [Compound 122] are below 1 µM and above 10 µM.
Turning to `CN1C(=O)CCC1n1cnc2ccc(CCNc3ncnc4c3sc3nc5c(cc34)COC(C)(C)C5)cc21` (stereo not shown) [Compound 304], the EC50 in assay [1] (Mus musculus, 72 h) was below 1 µM; in the assay with SDH-WT cells (Mus musculus, 72 h), 3 to 10 µM.
In the same order, the values of `COc1ccc(CCNC(=O)c2sc3nc4c(cc3c2NC(=O)C(F)(F)F)COC(C)(C)C4)cc1F` [Compound 207] are 3 to 10 µM and 1 to 3 µM.
Turning to `CC1(C)Cc2nc3sc4c(NCCc5ccc(NC(=O)C(F)(F)F)c(F)c5)ncnc4c3cc2CO1` [Compound 200], the EC50 lay within 1 to 3 µM in assay [1] (Mus musculus, 72 h) and 3 to 10 µM with SDH-WT cells (Mus musculus, 72 h).
In the same order, the values of `CC(C)CNc1ncnc2c1sc1nc3c(cc12)COC(C)(C)C3` [Compound 224] are above 10 µM and above 10 µM.
In the same order, the values of `Cc1nc(NCCCN(C)C)c2sc3nc4c(cc3c2n1)COC(C)(C)C4` [Compound 226] are above 10 µM and above 10 µM.
In the same order, the values of `CC1(C)Cc2nc3sc4c(NCCc5ccc(NC(=O)c6ccccc6)c([N+](=O)[O-])c5)ncnc4c3cc2CO1` [Compound 197] are 1 to 3 µM and 3 to 10 µM.
With `c1cnc2sc3c(NCCc4ccc5[nH]cnc5c4)nc(C4CCCCC4)nc3c2c1` [Compound 310, N-(2-(1H-Benzo[d]imidazol-5-yl)ethyl)-2-cyclohexylpyrido[3′,2′:4,5]thieno[3,2-d]pyrimidin-4-amine], the EC50 in assay [1] (Mus musculus, 72 h) was above 10 µM; with SDH-WT cells (Mus musculus, 72 h), above 10 µM.
As to `CC(Nc1ncnc2c1sc1nc3c(cc12)COC(C)(C)C3)c1ccccc1` (stereo not shown) [Compound 274], the EC50 in assay [1] (Mus musculus, 72 h) is above 10 µM; in the assay with SDH-WT cells (Mus musculus, 72 h), above 10 µM.
For `Cc1nc(NC(C)CCc2ccccc2)c2sc3nc4c(cc3c2n1)COC(C)(C)C4` (stereo not shown) [Compound 252], the EC50 in assay [1] (Mus musculus, 72 h) was above 10 µM; in the assay on SDH-WT cells, above 10 µM.
With `Cc1nc(NCCC(C)C)c2sc3nc4c(cc3c2n1)COC(C)(C)C4` [Compound 251], the EC50 is above 10 µM in assay [1] (Mus musculus, 72 h) and above 10 µM with SDH-WT cells (Mus musculus, 72 h).
Turning to `CC1(C)Cc2nc3sc4c(NC5CCCCC5)ncnc4c3cc2CO1` [Compound 261], the EC50 was above 10 µM in assay [1] (Mus musculus, 72 h) and above 10 µM in the assay on SDH-WT cells (Mus musculus, 72 h).
Regarding `COCCOCCOCCOCCN(C)Cc1c2c(nc3sc4c(NCCc5ccc6[nH]cnc6c5)ncnc4c13)CC(C)(C)OC2` [Compound 330, N-(2-(1H-Benzo[d]imidazol-5-yl)ethyl)-8,8-dimethyl-11-(2-methyl-5,8,11,14-tetraoxa-2-azapentadecyl)-7,10-dihydro-8H-pyrano[3″,4″:5′,6′]pyrido[3′,2′:4,5]thieno[3,2-d]pyrimidin-4-amine], the half-maximal effective concentration (EC50) in assay [1] (Mus musculus, 72 h) is below 1 µM; in the assay on SDH-WT cells (Mus musculus, 72 h), 3 to 10 µM. The “differential toxicity, SDH-KO cells compared to SDH-WT cells” value in assay [1] (viability EC50s, 72 hours, Example 6) is above 56.
Regarding `Cc1nc(NCCN2CCOCC2)c2sc3nc4c(cc3c2n1)COC(C)(C)C4` [Compound 230], the EC50 was above 10 µM in assay [1] (Mus musculus, 72 h) and above 10 µM in the assay with SDH-WT cells (Mus musculus, 72 h).
On to `CCN(CCO)c1ncnc2c1sc1nc3c(cc12)COC(C)(C)C3` [Compound 289], for which the EC50 in assay [1] (Mus musculus, 72 h) is 3 to 10 µM; in the assay with SDH-WT cells (Mus musculus, 72 h), above 10 µM.
In the same order, the values of `CC(=O)OC(C)c1nc2cc(CCNc3ncnc4c3sc3nc5c(cc34)COC(C)(C)C5)ccc2[nH]1` (stereo not shown) [Compound 185] are 1 to 3 µM and 3 to 10 µM.
Regarding `COCCCCc1c2c(nc3sc4c(NCCc5ccc6[nH]cnc6c5)ncnc4c13)CC(C)(C)OC2` [Compound 335], the EC50 in assay [1] (Mus musculus, 72 h) is below 1 µM; in the assay with SDH-WT cells (Mus musculus, 72 h), 3 to 10 µM.
In the same order, the values of `CCC(C)Nc1nc(C)nc2c1sc1nc3c(cc12)COC(C)(C)C3` (stereo not shown) [Compound 219] are 3 to 10 µM and above 10 µM.
In the same order, the values of `COc1cccc(CCNc2ncnc3c2sc2nc4c(cc23)COC(C)(C)C4)c1` [Compound 117] are 3 to 10 µM and above 10 µM.
In the same order, the values of `c1cnc2sc3c(NCCc4ccc5[nH]cnc5c4)nc(C4CCCC4)nc3c2c1` [Compound 316, N-(2-(1H-Benzo[d]imidazol-5-yl)ethyl)-2-cyclopentylpyrido[3′,2′:4,5]thieno[3,2-d]pyrimidin-4-amine] are 3 to 10 µM and 3 to 10 µM.
Regarding `CC1(C)Cc2nc3sc4c(NCCc5ccc(NS(C)(=O)=O)cc5)ncnc4c3cc2CO1` [Compound 152], the EC50 in assay [1] (Mus musculus, 72 h) lay within 3 to 10 µM; with SDH-WT cells (Mus musculus, 72 h), 3 to 10 µM.
In the case of `CC1(C)Cc2nc3sc4c(NCCc5ccc6[nH]cnc6c5)ncnc4c3c(C(=O)OCCCCCCCC(=O)O)c2CO1` [Compound 210], the EC50 in assay [1] (Mus musculus, 72 h) was 3 to 10 µM; in the assay on SDH-WT cells (Mus musculus, 72 h), below 1 µM.
